Results reported in patent US20220259593A1, “CONTROL OF MAMMALIAN GENE DOSAGE USING CRISPR” (The Regents of the University of California, priority 2019, published 2022).

Tests used:
[1] = tested on: K562 CRISPRi cells; assay: Perturb-seq pooled growth measurement (sgRNA counts, growth phenotype γ, relative activity); type: cell-based, human; conditions: for gamma_day5 / gamma_day10: pooled growth phenotype γ of the Perturb-seq sgRNA; for gamma_day5: day 5, K562 CRISPRi cells; for gamma_day10: day 10, K562 CRISPRi cells; for relative_activity_day5: γ relative to perfectly matched sgRNA (_00) of the same gene, day 5; for Perturb-seq pooled growth sgRNA counts, d5 / Perturb-seq pooled growth sgRNA counts, d10 / Perturb-seq pooled growth sgRNA counts, T0: sequencing read counts; for Perturb-seq pooled growth sgRNA counts, d5: 5 days of growth (day seven after transduction); for Perturb-seq pooled growth sgRNA counts, d10: 10 days of growth (day twelve after transduction); for Perturb-seq pooled growth sgRNA counts, T0: T0 = day two after transduction
In short: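 CRISPRi K562 cells from the Perturb-seq transduced pool; 500,000-cell samples taken days two, seven and twelve post-transduction. sgRNA amplicons from genomic DNA sequenced; growth phenotypes from normalized sgRNA abundances at days seven and twelve versus day two. Relative activity assigned from day seven (five days' growth).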

[2] = tested on: K562 CRISPRi cells; assay: as above; type: cell-based, human; conditions: γ relative to perfectly matched sgRNA (_00) of the same gene, day 10

| Substance | gamma_day5 [1] | gamma_day10 [1] | relative_activity_day5 [1] | relative_activity_day10 [2] | Perturb-seq pooled growth sgRNA counts, d5 [1] | Perturb-seq pooled growth sgRNA counts, d10 [1] | Perturb-seq pooled growth sgRNA counts, T0 [1] |
| --- | --- | --- | --- | --- | --- | --- | --- |
| RPS18_ + _33239917.23-P1P2_08 (guide GCTGCGATTCCGCTGGATCA; listed as DNA, chemistry not fully specified) | −0.2228 | −0.1637 | 0.2727 | 0.3255 | – | – | – |
| SEC61A1_ −_127771295.23-P1_02 (guide GGCGCTGACGTGTCTCTCGG; listed as DNA, chemistry not fully specified) | −0.6451 | −0.4055 | 0.7012 | 0.7203 | – | – | – |
| RAN_ + _131356438.23-P1P2_12 (guide GGCGGTCGCTGCGCTTAGGT; listed as DNA, chemistry not fully specified) | −0.04655 | −0.03426 | 0.2358 | 0.2122 | – | – | – |
| HSPA5_ + _128003624.23-P1P2_00 (guide GAGCCGAGTAGGCGACGGTG; listed as DNA, chemistry not fully specified) | −0.7476 | −0.4272 | 1 | 1 | – | – | – |
| GATA1_ −_48645022.23-P1P2_04 (guide GTGAGCTTACCACATCCCCA; listed as DNA, chemistry not fully specified) | −0.9313 | −0.6032 | 0.9673 | 0.9804 | – | – | – |
| RPS14_ + _149829238.23-P1P2_08 (guide GAGGCCCGGGCTCGACAATC; listed as DNA, chemistry not fully specified) | 0.02738 | −0.0006109 | −0.03462 | 0.001223 | – | – | – |
| HSPE1_ + _198365089.23-P1P2_02 (guide GGAGACTGGCAGTCCGGCCC; listed as DNA, chemistry not fully specified) | −0.4365 | −0.3565 | 0.622 | 0.6285 | – | – | – |
| CDC23_−_137548987.23-P1P2_04: sgRNA targeting CDC23, GACAGCCAACGGGACCATGG, SEQ ID NO: 100 (listed as DNA, chemistry not fully specified) | – | – | – | – | 1646 | 1646 | 8019 |
| BCR_+_23523092.23-P1P2_00: sgRNA targeting BCR, GCGCGCGGGGCCCGTCTCAG, SEQ ID NO: 125 (listed as DNA, chemistry not fully specified) | – | – | – | – | 2250 | 2333 | 9644 |
| HSPA9_−_137911079.23-P1P2_07: sgRNA targeting HSPA9, GGAGCTGCGGGATGCGGTGG, SEQ ID NO: 132 (listed as DNA, chemistry not fully specified) | – | – | – | – | 1513 | 1463 | 5941 |
| BCR_+_23523092.23-P1P2_05: sgRNA targeting BCR, GCGCGCGGCGCCCGTCTCAG, SEQ ID NO: 128 (listed as DNA, chemistry not fully specified) | – | – | – | – | 12165 | 15537 | 13439 |
| DBR1_+_137893744.23-P1P2_05: sgRNA targeting DBR1, GTTTGCAGGAGTGTACACCC, SEQ ID NO: 81 (listed as DNA, chemistry not fully specified) | – | – | – | – | 6705 | 4748 | 6569 |
| TUBB_+_30688126.23-P1_00: sgRNA targeting TUBB, GCGGCAGGAAGGTTCTGAGA, SEQ ID NO: 23 (listed as DNA, chemistry not fully specified) | – | – | – | – | 2722 | 1125 | 13570 |
| non-targeting_00283: non-targeting negative control sgRNA, GGGCCGACGGATAGGAGGGA, SEQ ID NO: 166 (listed as DNA, chemistry not fully specified) [reference compound] | – | – | – | – | 18547 | 27936 | 8188 |
| SEC61A1_−_127771295.23-P1_03: sgRNA targeting SEC61A1, GGTACTGACGTGTCTCTCGG, SEQ ID NO: 86 (listed as DNA, chemistry not fully specified) | – | – | – | – | 3530 | 3563 | 5904 |
| COX11_+_53045977.23-P1P2_05: sgRNA targeting COX11, GGCTCTGGCGTCTTGGATGG, SEQ ID NO: 144 (listed as DNA, chemistry not fully specified) | – | – | – | – | 10766 | 11496 | 5205 |
| MTOR_+_11322547.23-P1P2_07: sgRNA targeting MTOR, GGGCAGGGGGTCTGAAGCGG, SEQ ID NO: 147 (listed as DNA, chemistry not fully specified) | – | – | – | – | 3183 | 1899 | 6761 |
| RPS14_+_149829238.23-P1P2_08: sgRNA targeting RPS14, GAGGCCCGGGCTCGACAATC, SEQ ID NO: 50 (listed as DNA, chemistry not fully specified) | – | – | – | – | 11681 | 17976 | 4488 |
| RPS14_+_149829238.23-P1P2_00: sgRNA targeting RPS14, GAGGCCCGGGCGCGACAATC, SEQ ID NO: 45 (listed as DNA, chemistry not fully specified) | – | – | – | – | 3190 | 2984 | 11846 |
| POLR1D_+_28196016.23-P1_00: sgRNA targeting POLR1D, GGGAAGCAAGGACCGACCGA, SEQ ID NO: 11 (listed as DNA, chemistry not fully specified) | – | – | – | – | 3429 | 1496 | 11671 |
| ATP5E_−_57607036.23-P1P2_04: sgRNA targeting ATP5E, GGTGTCCAGGAGCACTCTGT, SEQ ID NO: 154 (listed as DNA, chemistry not fully specified) | – | – | – | – | 13256 | 14860 | 7209 |
| RPS15_−_1438413.23-P1P2_01: sgRNA targeting RPS15, GACCAAACCGATCTCTTCTG, SEQ ID NO: 64 (listed as DNA, chemistry not fully specified) | – | – | – | – | 23866 | 39345 | 9713 |
| BCR_+_23523092.23-P1P2_15: sgRNA targeting BCR, GCGCGCGGGGCCCGTCGCAG, SEQ ID NO: 129 (listed as DNA, chemistry not fully specified) | – | – | – | – | 6829 | 8085 | 5377 |
| non-targeting_00527: non-targeting negative control sgRNA, GTGGGAGCAGATCAAGACTC, SEQ ID NO: 168 (listed as DNA, chemistry not fully specified) [reference compound] | – | – | – | – | 16865 | 27634 | 6840 |
| POLR2H_+_184081251.23-P1P2_11: sgRNA targeting POLR2H, GGGGCCACGAGAGCAGCGGA, SEQ ID NO: 115 (listed as DNA, chemistry not fully specified) | – | – | – | – | 898 | 1144 | 5900 |
| HSPE1_+_198365089.23-P1P2_01: sgRNA targeting HSPE1, GGAGACACGCAGTCCGGCCC, SEQ ID NO: 65 (listed as DNA, chemistry not fully specified) | – | – | – | – | 4228 | 2663 | 9669 |
| non-targeting_00217: non-targeting negative control sgRNA, GTGAACTCAAAAATCCCGAC, SEQ ID NO: 165 (listed as DNA, chemistry not fully specified) [reference compound] | – | – | – | – | 25185 | 42962 | 10286 |
| CDC23_−_137548987.23-P1P2_02: sgRNA targeting CDC23, GACAGCTACCGGGACCATGG, SEQ ID NO: 98 (listed as DNA, chemistry not fully specified) | – | – | – | – | 832 | 1192 | 7014 |
| CDC23_−_137548987.23-P1P2_00: sgRNA targeting CDC23, GACAGCCACCGGGACCATGG, SEQ ID NO: 18 (listed as DNA, chemistry not fully specified) | – | – | – | – | 757 | 854 | 8182 |
